Test results published in patent US7786113B2, “Heterocyclic carbamate derivatives, their manufacture and use as pharmaceutical agents” (Hoffman-La Roche Inc., priority 2004, dated 2010).
pIC50: −log10 of the molar value.

Key:
Src (p60^c-src) = molecular target: T1, Src (p60^c-src) (Homo sapiens, UniProt P12931); experiment: SRC-Inhibitor-Assay (time-resolved fluorescence kinase assay), Src; format: biochemical; details: ATP 5 μM, peptide 10 μM, enzyme 2.5 U/ml, pH 7.3
T1 construct: purchased UBI, Upstate Biotech, Inc
T1 sequence (P12931 whole entry): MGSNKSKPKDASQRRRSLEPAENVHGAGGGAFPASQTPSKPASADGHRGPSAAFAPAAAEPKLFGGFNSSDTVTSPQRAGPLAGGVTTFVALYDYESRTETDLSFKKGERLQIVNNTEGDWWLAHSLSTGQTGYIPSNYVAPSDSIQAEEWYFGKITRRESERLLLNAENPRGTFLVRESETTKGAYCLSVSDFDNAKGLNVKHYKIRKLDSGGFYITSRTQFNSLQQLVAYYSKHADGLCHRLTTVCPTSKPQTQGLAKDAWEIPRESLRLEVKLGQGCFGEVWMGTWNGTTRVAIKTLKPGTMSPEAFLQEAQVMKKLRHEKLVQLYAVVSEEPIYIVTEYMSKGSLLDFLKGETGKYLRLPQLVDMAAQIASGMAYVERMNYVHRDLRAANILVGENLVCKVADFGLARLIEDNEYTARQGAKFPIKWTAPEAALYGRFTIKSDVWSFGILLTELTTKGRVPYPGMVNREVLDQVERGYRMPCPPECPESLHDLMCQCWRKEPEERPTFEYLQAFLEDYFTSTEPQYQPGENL
Excerpt: (§1) The activity of the compounds according to this invention as inhibitors for the src-family tyrosine kinases was shown by using the following assay.
(§2) ATP, Tween™ 20, 4-(2-hydroxyethyl)-1-piperazineethanesulfonic acid (HEPES) were purchased from Roche Molecular Biochemicals, MgCl2 and MnCl2 were purchased from Merck Eurolab, Tris(2-carboxyethyl)phosphine hydrochloride (TCEP) was purchased from Pierce, 384 Well low volume fluorescence plates was purchased from Falcon.
(§3) At first the enzyme is pre-incubated for 15 min. at 15° C. in aqueous solution with corresponding amounts of inhibitors according to this invention. Then the phosphorylation reaction is started by adding a reaction mixture, containing ATP, Peptide and PT66, and subsequent shaking. The proceeding of this reaction is immediately monitored using time resolved fluorescence spectroscopy in a suitable well plate reader.
(§4) The IC50-values can be obtained from the reaction rates by using a non-linear curve fit (XLfit software (ID Business Solution Ltd., Guilford, Surrey, UK))

Lck (p56^lck) = molecular target: T2, Lck (p56^lck) (Homo sapiens, UniProt P06239); experiment: SRC-Inhibitor-Assay (time-resolved fluorescence kinase assay), Lck; format: biochemical; details: ATP 5 μM, peptide 10 μM, enzyme 2.5 U/ml, pH 7.3
T2 construct: purchased UBI, Upstate Biotech, Inc
T2 sequence (P06239 whole entry): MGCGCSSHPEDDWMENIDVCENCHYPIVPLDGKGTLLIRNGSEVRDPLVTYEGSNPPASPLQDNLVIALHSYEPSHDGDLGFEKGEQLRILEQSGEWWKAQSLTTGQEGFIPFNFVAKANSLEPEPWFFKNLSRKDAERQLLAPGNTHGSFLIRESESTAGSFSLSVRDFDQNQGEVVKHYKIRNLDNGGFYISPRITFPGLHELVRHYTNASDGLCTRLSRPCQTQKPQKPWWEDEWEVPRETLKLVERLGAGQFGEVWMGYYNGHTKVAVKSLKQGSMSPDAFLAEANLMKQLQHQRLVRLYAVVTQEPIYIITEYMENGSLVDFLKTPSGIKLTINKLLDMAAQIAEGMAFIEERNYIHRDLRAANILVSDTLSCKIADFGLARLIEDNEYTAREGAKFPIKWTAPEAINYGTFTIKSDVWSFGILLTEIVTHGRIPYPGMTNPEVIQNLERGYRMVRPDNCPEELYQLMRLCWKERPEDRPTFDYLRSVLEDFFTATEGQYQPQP
Excerpt: as §1, §2, §3, §4

| pIC50 (Src (p60^c-src)) | pIC50 (Lck (p56^lck)) | SMILES |
| --- | --- | --- |
| 6.30 to 8.00 | 5.05 to 7.00 | CC(C)OC(=O)Nc1cnc2[nH]c(-c3ccc([N+](=O)[O-])cc3)nc2c1 [Example 3-4, [2-(4-Nitro-phenyl)-3H-imidazo[4,5-b]pyridin-6-yl]-carbamic acid isopropyl ester] |
| 6.30 to 8.00 | 5.05 to 7.00 | CCCOC(=O)Nc1cnc2nc(-c3ccccc3)[nH]c2c1 [Example 1-14, (2-Phenyl-1H-imidazo[4,5-b]pyridin-6-yl)-carbamic acid propyl ester] |
| 6.30 to 8.00 | 5.05 to 7.00 | COCCOc1ccc(-c2cc3cc(NC(=O)OCC(C)C)cnc3[nH]2)cc1 [Example 9-19, {2-[4-(2-Methoxy-ethoxy)-phenyl]-1H-pyrrolo[2,3-b]pyridin-5-yl}-carbamic acid isobutyl ester] |
| 6.30 to 8.00 | 5.05 to 7.00 | CC(C)OC(=O)Nc1cnc2[nH]c(-c3ccnc(Cl)c3)nc2c1 [Example 12-1, [2-(2-Chloro-pyridin-4-yl)-3H-imidazo[4,5-b]pyridin-6-yl]-carbamic acid isopropyl ester] |
| 6.30 to 8.00 | 5.05 to 7.00 | CC(=O)Nc1cccc(-c2cc3cc(NC(=O)OCc4ccccc4)cnc3[nH]2)c1 [Example 9-23, [2-(3-Acetylamino-phenyl)-1H-pyrrolo[2,3-b]pyridin-5-yl]-carbamic acid benzyl ester] |
| 6.30 to 8.00 | 5.05 to 7.00 | O=C(Nc1cnc2[nH]c(-c3ccccc3)cc2c1)OCc1ccccc1 [Example 9-8, (2-Phenyl-1H-pyrrolo[2,3-b]pyridin-5-yl)-carbamic acid benzyl ester] |
| 6.30 to 8.00 | 5.05 to 7.00 | CC(C)OC(=O)Nc1cnc2nc(-c3ccccc3)[nH]c2c1 [Example 1-2, (2-Phenyl-1H-imidazo[4,5-b]pyridin-6-yl)-carbamic acid isopropyl ester] |
| 6.30 to 8.00 | 5.05 to 7.00 | CC(=O)Nc1ccc(-c2cc3cc(NC(=O)OCC(C)(C)C)cnc3[nH]2)cc1 [Example 9-25, [2-(4-Acetylamino-phenyl)-1H-pyrrolo[2,3-b]pyridin-5-yl]-carbamic acid 2,2-dimethyl-propyl ester] |
| 6.30 to 8.00 | 5.05 to 7.00 | CC(C)OC(=O)Nc1cnc2[nH]c(-c3cccc(CCO)c3)nc2c1 [Example 2-9, {2-[3-(2-Hydroxy-ethyl)-phenyl]-3H-imidazo[4,5-b]pyridin-6-yl}-carbamic acid isopropyl ester] |
| 6.30 to 8.00 | 5.05 to 7.00 | CCOC(=O)Nc1cnc2[nH]c(-c3ccc(OCCOC)cc3)cc2c1 [Example 9-4, {2-[4-(2-Methoxy-ethoxy)-phenyl]-1H-pyrrolo[2,3-b]pyridin-5-yl}-carbamic acid ethyl ester] |
| 6.30 to 8.00 | 5.05 to 7.00 | Cc1cc(-c2nc3cc(NC(=O)OC(C)C)cnc3[nH]2)ccn1 [Example 3-1, [2-(2-Methyl-pyridin-4-yl)-3H-imidazo[4,5-b]pyridin-6-yl]-carbamic acid isopropyl ester] |
| 6.30 to 8.00 | 5.05 to 7.00 | COCCOc1ccc(-c2nc3cc(NC(=O)OC(C)C)cnc3[nH]2)cc1 [Example 2-3, {2-[4-(2-Methoxy-ethoxy)-phenyl]-3H-imidazo[4,5-b]pyridin-6-yl}-carbamic acid isopropyl ester] |
| 5.82 to 6.30 | 5.05 to 5.70 | CC(C)C(C)OC(=O)Nc1cnc2[nH]c(-c3ccccc3)nc2c1 (stereo not drawn) [Example 1-19, (2-Phenyl-3H-imidazo[4,5-b]pyridin-6-yl)-carbamic acid 1,2-dimethyl-propyl ester] |
| 6.30 to 8.00 | 5.05 to 7.00 | CCN(CC)CCOc1ccc(-c2nc3cc(NC(=O)OC(C)C)cnc3[nH]2)cc1 [Example 2-1, {2-[4-(2-Diethylamino-ethoxy)-phenyl]-3H-imidazo[4,5-b]pyridin-6-yl}-carbamic acid isopropyl ester] |
| 6.30 to 8.00 | 5.05 to 7.00 | CC(=O)Nc1cccc(-c2cc3cc(NC(=O)OC(C)C)cnc3[nH]2)c1 [Example 9-20, [2-(3-Acetylamino-phenyl)-1H-pyrrolo[2,3-b]pyridin-5-yl]-carbamic acid isopropyl ester] |
| 5.82 to 6.30 | 5.05 to 5.70 | CC(C)OC(=O)Nc1cnc2[nH]c(-c3cccc(C(=O)O)c3)nc2c1 [Example 11-1, 3-(6-Isopropoxycarbonylamino-3H-imidazo[4,5-b]pyridin-2-yl)-benzoic acid] |
| 6.30 to 8.00 | 5.05 to 7.00 | COCCN(CCOC)c1ccc(-c2nc3cc(NC(=O)OC(C)C)cnc3[nH]2)cc1F [Example 10-2, (2-{4-[Bis-(2-methoxy-ethyl)-amino]-3-fluoro-phenyl}-3H-imidazo[4,5-b]pyridin-6-yl)-carbamic acid isopropyl ester] |
| 6.73 | 5.87 | CC(C)OC(=O)Nc1cnc2[nH]c(-c3cccc([N+](=O)[O-])c3)nc2c1 [Example 2-4, [2-(3-Nitro-phenyl)-3H-imidazo[4,5-b]pyridin-6-yl]-carbamic acid isopropyl ester] |
| 6.30 to 8.00 | 5.05 to 7.00 | C#CC(C)OC(=O)Nc1cnc2[nH]c(-c3ccccc3)nc2c1 (stereo not drawn) [Example 1-15, (2-Phenyl-3H-imidazo[4,5-b]pyridin-6-yl)-carbamic acid 1-methyl-prop-2-ynyl ester] |
| 6.30 to 8.00 | 5.05 to 7.00 | CC(OC(=O)Nc1cnc2[nH]c(-c3ccccc3)nc2c1)c1ccccc1 (stereo not drawn) [Example 1-13, (2-Phenyl-3H-imidazo[4,5-b]pyridin-6-yl)-carbamic acid 1-phenyl-ethyl ester] |
| 6.30 to 8.00 | 5.05 to 7.00 | CC(C)OC(=O)Nc1cnc2[nH]c(-c3ccc([S+](C)[O-])cc3)nc2c1 (stereo not drawn) [Example 8-4, [2-(4-Methanesulfinyl-phenyl)-3H-imidazo[4,5-b]pyridin-6-yl]-carbamic acid isopropyl ester] |
| 6.30 to 8.00 | 5.05 to 7.00 | C=CCOC(=O)Nc1cnc2[nH]c(-c3ccc(OCCOC)cc3)cc2c1 [Example 9-5, {2-[4-(2-Methoxy-ethoxy)-phenyl]-1H-pyrrolo[2,3-b]pyridin-5-yl}-carbamic acid allyl ester] |
| 6.64 | 5.00 to 5.30 | CC(OC(=O)Nc1cnc2[nH]c(-c3ccccc3)nc2c1)C(F)(F)F (stereo not drawn) [Example 1-11, (2-Phenyl-3H-imidazo[4,5-b]pyridin-6-yl)-carbamic acid 2,2,2-trifluoro-1-methyl-ethyl ester] |
| 6.30 to 8.00 | 5.05 to 7.00 | CC(C)OC(=O)Nc1cnc2[nH]c(-c3ccc(N4CCOCC4)cc3)nc2c1 [Example 2-5, [2-(4-Morpholin-4-yl-phenyl)-3H-imidazo[4,5-b]pyridin-6-yl]-carbamic acid isopropyl ester] |
| 6.30 to 8.00 | 5.05 to 7.00 | CC#CC(C)OC(=O)Nc1cnc2[nH]c(-c3ccccc3)nc2c1 (stereo not drawn) [Example 1-16, (2-Phenyl-3H-imidazo[4,5-b]pyridin-6-yl)-carbamic acid 1-methyl-but-2-ynyl ester] |
| 5.82 to 6.30 | 5.05 to 5.70 | CC(C)(C)COC(=O)Nc1cnc2[nH]c(-c3ccccc3)nc2c1 [Example 1-12, (2-Phenyl-3H-imidazo[4,5-b]pyridin-6-yl)-carbamic acid 2,2-dimethyl-propyl ester] |
| 6.30 to 8.00 | 5.05 to 7.00 | CC(=O)Nc1cccc(-c2cc3cc(NC(=O)OCC(C)C)cnc3[nH]2)c1 [Example 9-28, [2-(3-Acetylamino-phenyl)-1H-pyrrolo[2,3-b]pyridin-5-yl]-carbamic acid isobutyl ester] |
